Test results published in patent publication US6384045B1, “Tricyclic and tetracyclic pyrones” (Kansas State University Research Foundation, priority 1997, dated 2002).
“Also recorded” adds a separate entry of the source.

What was measured:
[1] = system: L1210 lymphoblastic leukemia cells; test: Inhibition of DNA synthesis (3H-thymidine incorporation) in L1210 cells in vitro; format: cell-based, Murine; details: for IC50: read-out: concentration that inhibits DNA synthesis by 50% (IC50)
Procedure: FIG. 1 illustrates a comparison of the effects of four new tricyclic pyrone derivatives and CPT on DNA synthesis in L1210 cells in vitro. About 2.53×10^6 cells suspended in 0.5 ml of RPMI 1640 medium were incubated at 37° C. for 90 minutes in the presence or absence (control) of the indicated concentrations of drugs. The cells were then pulse-labeled for an additional 30 minutes to determine the rate of ^3H-thymidine incorporation into DNA. DNA synthesis in vehicle-treated control cells was 43,956±4,569 cpm (100±11%). The blank value (1,241±99 cpm) for cells pulse-labeled for 0 minutes with 1 μCi of ^3H-thymidine has been subtracted from the results. Bars: means±SD (n=3).
(§1) All solutions of tricyclic pyrone analogs were dissolved and diluted in 100% ethanol (ETOH), whereas CPT (Sigma Chemical Co., St. Louis, Mo.) solutions were prepared in 100% dimethyl sulfoxide (DMSO). Murine L1210 lymphoblastic leukemia cells, obtained from the American Type Culture Collection (Rockville, Md.), were maintained in continuous exponential growth by twice-a-week passage in RPMI 1640 medium supplemented with 7.5% fortified bovine calf serum (HyClone Laboratories, Inc., Logan, Utah). The cultures were incubated at 37° C. in a humidified atmosphere containing 5% CO2. All drugs were supplemented to the culture medium in 1- or 2 μl aliquots. The concentration of vehicle in the final incubation volume never exceeded 0.2-0.4%. […] Control cells incubated in the absence of drugs were similarly treated with vehicle only and, in every experiment, all incubates received the same volume of solvent.
For DNA synthesis, L1210 cells were resuspended in fresh serum-free RPMI 1640 medium at a density of about 2.5×10^6 cells/0.5 ml. The cells were incubated at 37° C. for 90 min in the presence or absence of drugs and then pulse-labeled for an additional 30 min with 1 μCi of [methyl-^3H]thymidine (51 Ci/mmol; Amersham Corp., Arlington Heights, Ill.). The incubations were terminated by the addition of 0.5 ml of 10% trichloroacetic acid (TCA). After holding on ice for 15 min, the acid-insoluble material was recovered over Whatman GF/A glass microfibre filters and washed thrice with 2 ml of 5% TCA and twice with 2 ml of 100% EtOH. After drying the filters, the radioactivity bound to the acid-precipitable material was determined by liquid scintillation counting in 10 ml of Bio-Safe NA (Research Products International Corp., Mount Prospect, Ill.).

[2] = system: T1, liver and intestinal microsomal ACAT; test: Inhibition of liver and intestinal microsomal ACAT activity; format: biochemical; details: using literature IC50 of pyripyropene as standard
T1 construct: other: 100 μM; other: 44 nM; other: 50 μM
Procedure: . Microsomes were prepared from liver and intestinal mucosal scrapings by sequential centrifugation and in vitro ACAT activity assays were done according to the method of Billheimer (Billheimer, J. T. (1985), “Cholesterol acyltransferase,” In Methods in Enzymology 111:286-293). Briefly, 100 μg microsomal protein, 22 μg BSA, and 52 nmol cholesterol and the synthesized drug in 5 μL DMSO were preincubated for 30 minutes at 37° C. in a phosphate buffer (200 μL total volume). After 30 minutes, 1 nmol [^14C]oleoyl-CoA was added as substrate and incubated for an additional 20 minutes. The reaction was stopped with the addition of 1 mL ethanol and lipids were extracted with hexane. Cholesteryl [^14C]oleate formation was quantified by thin-layer chromatography and data are expressed as percent inhibition of ACAT activity (pmol/μg protein per minute) compared to a control sample incubated with no drug. All samples were run in duplicate. […]

[3] = system: L1210 lymphoblastic leukemia cells; test: Inhibition of L1210 tumor cell growth in vitro (Coulter counter); format: cell-based, Murine; details: for reduction of L1210 cell numbers vs control: 6.25 μM; for inhibition at 50 µM: 3 and 4 days in culture, read-out: inhibition of L1210 cell growth (% reduction of control cell numbers)
Procedure: Cells were plated at an initial density of 1×10^4 cells/0.5 ml/well in RPMI 1640 medium, containing 7.5% fortified bovine calf serum, and grown at 37° C. for 4 days in a humidified incubator in 5% CO2 in air. Cells were incubated in the presence or absence (^•, control) of 50 μM 3A (▪), 2D & 2E (□),3D & 3E (▴), 2B & 2C (Δ) 2A (♦), 3B & 3C (⋄), or 10 μM CPT (∘) and their density was monitored in triplicate every 24 h using a Coulter counter. Cells numbers are plotted on a logarithmic scale.
as §1
For tumor cell growth, L1210 cells were resuspended in fresh serum-containing RPMI 1640 medium, plated at an initial density of 1×10^4 cells/0.5 ml, and incubated in 48-well Costar cell culture plates (Costar, Cambridge, Mass.). Cells were grown for 4 days in the presence or absence of drugs and their density was monitored every 24 h using a Coulter counter (Coulter Electronics, Ltd., Luton Beds, England). Data of all in vitro experiments were analyzed using Student's t-test with the level of significance set at P<0.05.

[4] = molecular target: T2, tubulin protein from bovine brain (Bos taurus, UniProt P81947+Q6B856); test: Polymerization of pure tubulin in a cell-free system; format: biochemical; details: 25 μM, 35° C., 20 min, 2.5 mg/ml tubulin
T2 construct: tubulin protein from bovine brain (2.5 mg/ml); purchased Cytoskeleton (Denver, Colo.); host or cells: bovine brain
Procedure: In a final volume of 200 μl, a solution of 2.5 mg/ml tubulin protein from bovine brain, 80 mM PIPES buffer, pH 6.8, 1 mM MgCl2, 1 mM EGTA, 1 mM GTP, and 10% glycerol was incubated at 35° C. for 20 minutes in the presence or absence (control) of 25 μM of compound 2A. The absorbance of the solution at OD340 nm was measured to determine the rate of tubulin polymerization.
Tubulin is a labile protein, which is unstable below 80 mM PIPES, should not be exposed to pH values less than 6.8 or greater than 7.0, and will not polymerize in the presence of Ca^2+. GTP and Mg^2+ are necessary for tubulin nativity and glycerol stabilizes tubulin and lowers the initial concentration required to initiate polymerization.
The ability of 2A to alter the polymerization of pure tubulin in a cell-free system in vitro was analyzed using the assay kit purchased from Cytoskeleton (Denver, Colo.). The polymerization reaction contained, in a final volume of 200 μl, tubulin protein from bovine brain (2.5 mg/ml), 80 mM PIPES buffer, pH 6.8, 1 mM MgCl2, 1 mM EGTA, 1 mM GTP and 10% glycerol. […] Samples were incubated at 35° C. in quartz microcells and the rate of tubulin polymerization was followed over 20 min by measuring the increased absorbance of the solution at OD340nm, using a Shimadzu UV-160 spectrophotometer equipped with dual-beam optics and a thermostatically-controlled cell holder. […]

[5] = system: EMT6 mammary carcinoma cells; test: Growth of EMT6 mammary carcinoma cells; format: cell-based
[6] = system: MCF-7 human breast cancer cells; test: Growth of MCF-7 human breast cancer cells; format: cell-based
[7] = molecular target: acetylcholinesterase (AChE) (UniProt O42275); format: biochemical, electric eel; fetal bovine serum; details: read-out: AChE inhibition constant Ki ± std. error; 30° C., pH 8.0
Procedure: Acetylcholinesterase Assay and Inhibition Kinetics: Tricyclic pyrones of this invention were tested for inhibition of AChE. […] Reactions were carried out at 30° C. in 0.1 M sodium phosphate buffer at pH 8.0 in the presence of […] and 3.3×10^−4 M 3-carboxy-4-nitrophenyl disulfide. Aliquots of incubating mixtures containing enzyme alone, or enzyme in the presence of each carbamate, were withdrawn at selected time intervals and assayed for enzyme activity in order to obtain kinetic data. From the kinetic data, inhibition and bimolecular rate constants were calculated by the equation: [formula]
in which kapp is the pseudo-first-order rate constant.

L1210 leukemic cells = test: Inhibition of other macromolecule synthesis (RNA and protein synthesis); format: cell-based
[8] = Mus musculus, L1210, 50 μM, 90 min + 30 min pulse

T2 sequence (P81947 whole entry): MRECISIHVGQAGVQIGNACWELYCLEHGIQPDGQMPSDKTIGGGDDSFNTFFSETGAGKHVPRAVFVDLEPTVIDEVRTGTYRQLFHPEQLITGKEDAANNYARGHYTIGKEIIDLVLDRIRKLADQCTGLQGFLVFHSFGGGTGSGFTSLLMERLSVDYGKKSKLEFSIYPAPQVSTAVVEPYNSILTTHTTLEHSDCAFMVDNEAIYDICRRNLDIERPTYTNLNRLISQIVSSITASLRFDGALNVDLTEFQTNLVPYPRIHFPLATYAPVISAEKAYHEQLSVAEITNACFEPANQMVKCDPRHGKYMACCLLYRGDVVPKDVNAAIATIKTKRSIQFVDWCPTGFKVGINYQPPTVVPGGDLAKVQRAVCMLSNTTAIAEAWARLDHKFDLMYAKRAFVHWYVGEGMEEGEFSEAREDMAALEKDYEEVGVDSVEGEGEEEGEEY
T2 sequence (Q6B856 whole entry): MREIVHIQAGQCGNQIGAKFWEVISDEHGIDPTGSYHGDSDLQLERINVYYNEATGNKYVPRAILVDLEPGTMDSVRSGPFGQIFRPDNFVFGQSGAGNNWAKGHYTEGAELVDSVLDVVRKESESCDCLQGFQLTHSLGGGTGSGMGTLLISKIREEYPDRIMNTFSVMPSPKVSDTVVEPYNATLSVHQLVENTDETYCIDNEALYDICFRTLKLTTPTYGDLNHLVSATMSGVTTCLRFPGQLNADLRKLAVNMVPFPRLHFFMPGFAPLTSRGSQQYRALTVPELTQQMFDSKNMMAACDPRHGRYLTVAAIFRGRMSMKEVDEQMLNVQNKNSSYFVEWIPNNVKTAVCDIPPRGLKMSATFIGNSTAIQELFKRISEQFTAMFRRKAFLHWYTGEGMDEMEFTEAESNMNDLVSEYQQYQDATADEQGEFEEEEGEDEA
Chain of acetylcholinesterase (AChE) (O42275 whole entry): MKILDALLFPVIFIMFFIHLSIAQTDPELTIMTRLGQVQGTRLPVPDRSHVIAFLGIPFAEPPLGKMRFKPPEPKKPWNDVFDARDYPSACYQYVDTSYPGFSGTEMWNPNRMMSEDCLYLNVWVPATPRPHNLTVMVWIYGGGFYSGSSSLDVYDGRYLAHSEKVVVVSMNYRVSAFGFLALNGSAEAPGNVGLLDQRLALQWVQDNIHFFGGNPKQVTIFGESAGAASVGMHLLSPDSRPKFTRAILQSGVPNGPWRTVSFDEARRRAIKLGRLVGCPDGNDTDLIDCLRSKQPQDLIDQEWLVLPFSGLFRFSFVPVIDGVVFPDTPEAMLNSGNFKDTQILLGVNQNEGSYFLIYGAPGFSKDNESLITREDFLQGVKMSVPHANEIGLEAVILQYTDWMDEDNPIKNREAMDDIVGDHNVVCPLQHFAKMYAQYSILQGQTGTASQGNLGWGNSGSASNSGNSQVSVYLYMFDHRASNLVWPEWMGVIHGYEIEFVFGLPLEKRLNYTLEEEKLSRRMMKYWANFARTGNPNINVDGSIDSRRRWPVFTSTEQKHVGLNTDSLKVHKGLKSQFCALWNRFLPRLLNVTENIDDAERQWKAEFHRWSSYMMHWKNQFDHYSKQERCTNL

SMILES: O=c1cc(O)cc(-c2cccnc2)o1 [Compound 5B, 4-hydroxy-6-(3-pyridyl)-2-pyrone]
- inhibition of DNA synthesis in L1210 cells ([1]; 25 μM, 90 min + 30 min pulse): no significant effects
- inhibition of DNA synthesis in L1210 cells ([1]; 50 μM, 90 min + 30 min pulse, 50 µM): no effect; also recorded: ineffective; also recorded: fail to inhibit DNA synthesis
- melting point: 187 to 189 °C

SMILES: O=c1oc(-c2cccnc2)cc2c1C=C1CCCCC1O2 (stereo not shown) [Compound 2A, 3-(3-pyridyl)-1H-5a,6,7,8,9-pentahydro-1-oxopyrano[4,3-b][1]benzopyran]
- IC50 [2]: 50 µM
- inhibition at 50 µM [1, 8]: 79 to 91%
- IC50 ([1]; Mus musculus, L1210 cells, 2 h): ~8.5 µM
- inhibition of tumor cell growth ([3]; 1.56 μM, after 24 h): no effect
- times less potent than CPT at inhibiting leukemic cell growth ([3]; 6.25 μM 2A mimics 0.78 μM CPT over 4 days): about 8 times
- reduction of L1210 cell numbers vs control ([3]; 1 day): 28%
- reduction of L1210 cell numbers vs control ([3]; 2 days): 74%
- reduction of L1210 cell numbers vs control ([3]; 3 days): 90%
- reduction of L1210 cell numbers vs control ([3]; 4 days): 94%
- IC50 ([3]; Mus musculus, L1210, 24 h, 1 day): 11 µM
- IC50 ([3]; Mus musculus, L1210, 48 h, 2 days): 2 µM
- IC50 ([3]; Mus musculus, L1210, 72 h, 3 days): 1.1 µM
- IC50 ([3]; Mus musculus, L1210, 96 h, 4 days): 1.1 µM
- inhibition at 1.56 µM ([3]; Mus musculus, L1210, 1.56 μM, after 96 h): 83%
- inhibition at 50 µM ([3]; Mus musculus, L1210): 91 to 100%
- inhibition of tubulin polymerization (OD340nm) [4]: completely inhibit polymerization of pure tubulin; also recorded: completely inhibits tubulin polymerization; also recorded: no significant MT polymerization can be detected
- inhibition of growth of EMT6 mammary carcinoma cells [5]: greater inhibitory effect than tricyclic pyrone 3A
- inhibition of growth of MCF-7 human breast cancer cells [6]: greater inhibitory effect than tricyclic pyrone 3A

SMILES: COc1ccc(-c2cc3c(c(=O)o2)C=C2CCCCC2O3)cc1OC (stereo not shown) [Compound 3A, 3-(3,4-dimethoxyphenyl)-1H-5a,6,7,8,9-pentahydro-1-oxopyrano[4,3-b][1]benzopyran]
- Ki [7]: 23 ± 3.5 µM
- IC50 [2]: 63 µM
- IC50 ([1]; Mus musculus, L1210, 2 h): ~8.5 µM
- inhibition at 25 µM ([1]; Mus musculus, L1210, 25 μM, 90 min + 30 min pulse): 62%
- inhibition at 50 µM [1, 8]: 79 to 91%
- inhibition at 50 µM ([3]; Mus musculus, L1210): 91 to 100%
- inhibition of macromolecule synthesis (RNA and protein synthesis) (L1210 leukemic cells): more potent inhibitor of macromolecule synthesis than the 3-pyridyl substituted tricyclic pyrone 2A
